These results are taken from patent US9289607B2, “Urgency therapy with neuromodulation and C-afferent nerve desensitization” (MEDTRONIC, INC., priority 2010, dated 2016).

Each structure is given as a SMILES string.

Holding throughout (assay type): in vivo, Sprague-Dawley rats
For data set [1], the system named is bladder rhythmic contraction. The experiment in a line: Bladder rhythmic contraction with L6 spinal nerve stimulation after capsaicin pretreatment. Here is the method: Female Sprague-Dawley rats weighing approximately 200-300 grams (g) were anesthetized with urethane (in particular, two injections, approximately 4 min apart, total 1.2 g urethane/kilogram (kg) rat). The anesthetized rats were maintained with a hot-water-circulating heating pad during the studies.
To record bladder contractions, a polyethylene cannula (IntraMedic PE50 tubing, Stoelting Co., Wood Dale, Ill.), was placed into the bladder of each of the rats via the urethra and the urethra was ligated to ensure an isovolumetric bladder. The urethral cannula was connected with a T connector and linked with a low volume transducer (ADInstrument MLT0380/D, Colorado Springs, Colo.). The signal was amplified through a DC amplifier (ADInstrument, ML119, Colorado Springs, Colo.). The other end of the T connector was linked to a 20 cubic centimeters (cc) syringe with a perfusion pump.
To deliver electrical stimulation, a wire electrode was placed under the L6 spinal nerves of each of the rats bilaterally. The dorsal skin around sacral and thoracic surface was shaved and a dorsal midline incision was made from approximately spinal nerve L3 to S2. A combination of sharp and blunt dissection was used to expose the left L6/S1 posterior interarticular process. The S1 transverse process was visualized and removed, and the L6 nerves were located caudal and medial to the sacroiliac junction and were then exposed distal to their emergence from the intervertebral foramina. Two bared portions of a teflon-coated, 40-gauge, stainless steel wire (Cooner Wire Co., Chatsworth, Calif.) were placed bilaterally under each of the L6 nerve. A silicone adhesive (Kwik-Cast, World Precision Instruments, Inc, Sarasota, Fla.) was applied to cover the wire around the nerve. The muscle and incision were closed with silk suture. The wire electrode and a needle electrode under the skin of the tail served as the stimulating cathode and the indifferent anode, respectively.
Biphasic pulses having a pulse width of about 0.1 ms and different intensities were used to stimulate the spinal nerve at frequencies ranging from 0.01 Hz to 100 Hz. A Grass S88 stimulator (Grass Technologies, West Warwick, R.I.) with an SIU5 stimulus isolator (Grass Technologies, West Warwick, R.I.) was used to generate stimulus pulses. Electrical stimulation of spinal nerves with pulses of sufficient intensity evoked hind-toe twitches and pelvic floor muscle contractions. In each rat, the motor threshold, defined by the lowest intensity to evoke any of those muscle contractions was tested. The rats with motor threshold over 0.4 mA were excluded from the study. The intensities of stimulation were given either at 0.6 mA or threshold intensity, which was adjusted until the muscle contraction was just discernible in each animal.
(§1) Thirty-two rats were chronically treated with capsaicin or vehicle (e.g., solution without capsaicin added). Capsaicin (Sigma-Aldrich, St. Louis, Mo.) was administered to the rats in a vehicle solution containing approximately 20 milligrams (mg)/milliliters (mL) capsaicin in a mixture of approximately 10% ethanol, approximately 10% Tween 80 and approximately 80% physiological saline. For each of the rats, capsaicin (125 mg/kg) was given subcutaneously in the hindlimb in divided doses on 2 consecutive days: on the first day, a first dose of 25 mg/kg was administered, and, twelve hours later, a second dose of 50 mg/kg was administered, and on the second day, a third dose of 50 mg/kg was administered. Injections were performed under isoflurane anesthesia. Control rats received a corresponding volume of vehicles. Experiments on the effect of neurostimulation on rhythmic bladder contraction were conducted approximately 4 days after injection of the third dose was administered. To evaluate the effectiveness of capsaicin pretreatment, an eye wipe test was performed on each unanesthetized animal just before the experiment. […]

Data set [2] is described as follows: Behaviour after subcutaneous capsaicin injection. Here is the method: as §1, with “experiment. A drop of approximately 100 microgram per milliliter (μg/mL) capsaicin solution was instilled into an eye of the animal and the number of defensive wiping movements was counted.” for “experiment.”
Data set [3] in a line: Eye wipe test of capsaicin pretreatment effectiveness. Particulars: drop of 100 μg/mL capsaicin solution in eye; rats pretreated with capsaicin 125 mg/kg s.c.; 16 rats. Here is the method:
as §1, with “experiment. A drop of approximately 100 microgram per milliliter (μg/mL) capsaicin solution was instilled into an eye of the animal and the number of defensive wiping movements was counted.” for “experiment.”

The mark [4] stands for this setting: capsaicin 125 mg/kg s.c. pretreatment 4 days before, mean control before stimulation, 8 rats, mean±SEM.
The mark [5] stands for this setting: capsaicin 125 mg/kg s.c. pretreatment, stimulation approximately 0.6 mA, 0.5 Hz.

For `COc1cc(CNC(=O)CCCC/C=C/C(C)C)ccc1O` [capsaicin, Capsaicin], in data set [1] (setting [4]), the “average amplitude of bladder contractions prior to neurostimulation” value is reported as “approximately 19.24±1.89 mmHg” and the “mean frequency of bladder contractions prior to neurostimulation” value is recorded as “approximately 3.19±0.20 contractions per 5 minutes”. Further, in data set [1] (setting [5]), the “persistence of inhibition after stimulation was terminated (FIG. 12A)” value was “more than 20 minutes” and the “rhythmic bladder contractions during spinal nerve stimulation (FIG. 12A)” value is reported as “substantially completely inhibited”. Further, the “bladder contractions with spinal nerve stimulation at threshold intensity (FIG. 12B)” value in data set [1] (capsaicin 125 mg/kg s.c. pretreatment, threshold intensity about 0.01 mA, about 10 Hz, particularly after termination of stimulation) is reported as “attenuated bladder contractions”. The “frequency of the bladder rhythmic contraction” value in data set [1] (capsaicin approximately 125 mg/kg s.c. pretreatment, stimulation approximately 0.6 mA, six rats, p<0.05 vs vehicle pretreated, two-way ANOVA (FIG. 13A)) was 18±14 % of control. Also, the “mean frequency and amplitude of bladder contractions, capsaicin-treated versus vehicle-treated rats” value in data set [1] (prior to delivery of neurostimulation) is “did not differ”. In addition, in data set [1] (threshold intensity approximately 0.01 mA, believed not statistically significant), the “effect on bladder rhythmic contraction of stimulation at threshold intensity (FIG. 13B)” value is reported as “trend of inhibitory effects”. The aversive behaviours thereafter entry in data set [2] (after the first 3-4 hours, capsaicin 125 mg/kg s.c. in divided doses over 2 days) is recorded as “no aversive behaviors were observed”. In data set [2] (approximately 3-4 hours after first capsaicin injection (25 mg/kg s.c., hindlimb)), the “behaviour following the first capsaicin injection” value is reported as “signs of pain behaviors”. Also, in data set [3], the “reaction in the eye wipe test (defensive wiping movements)” value was “no reaction”.
